Results as given in ChEMBL document CHEMBL4627323, “Synthesis and anti-OXPHOS, antitumor activities of DLC modified spinosyn derivatives” (Bioorg Med Chem Lett, 2020).
Active and inactive are the calls of the source. The rule behind the calls is not given here.

Columns and labels:
MCF7 = assay: Antiproliferative activity against human MCF7 cells incubated for 48 hrs; format: functional, cell-based; details: MCF7, 48 h
HCT-116 = assay: Antiproliferative activity against human HCT116 cells incubated for 48 hrs; format: functional, cell-based; details: HCT-116, 48 h
NCI-H460 [1] = assay: Antiproliferative activity against human NCI-H460 cells incubated for 48 hrs; format: functional, cell-based; details: NCI-H460, 48 h
U-87 MG = assay: Antiproliferative activity against human U87MG cells incubated for 48 hrs; format: functional, cell-based, U-87MG ATCC
NCI-H460 [2] = assay: Anti-OXPHOS activity in human NCI-H460 cells assessed as inhibition of mitochondrial oxidative phosphorylation by seahorse XFe96 analyser based assay; details: Mitochondria
NCI-H460 [3] = assay: Anti-OXPHOS activity in human NCI-H460 cells assessed as inhibition of oxygen consumption rate at 4 uM incubated for 1 hr by seahorse XFe96 analyser based assay relative to control
NCI-H460 [4] = assay: Antiproliferative activity against human NCI-H460 cells assessed as inhibition of cell growth at 32 uM incubated for 3 hrs; format: functional, cell-based
NCI-H460 [5] = assay: Anti-OXPHOS activity in human NCI-H460 cells assessed as inhibition of oxygen consumption rate at 8 uM by seahorse XFe96 analyser based assay
NCI-H460 [6] = assay: Induction of apoptosis in human NCI-H460 cells assessed as viable cells at 2 uM by Annexin V/PI staining based flow cytometric analysis (reference value: 95.3%); format: functional; details: read-out: Activity
NCI-H460 [7] = assay: Induction of apoptosis in human NCI-H460 cells assessed as early apoptotic cells at 2 uM by Annexin V/PI staining based flow cytometric analysis (reference value: […]); format: functional
NCI-H460 [8] = assay: Induction of apoptosis in human NCI-H460 cells assessed as late apoptotic cells at 2 uM by Annexin V/PI staining based flow cytometric analysis (reference value: 1.17%); format: functional
NCI-H460 [9] = assay: Induction of apoptosis in human NCI-H460 cells assessed as necrotic cells at 2 uM by Annexin V/PI staining based flow cytometric analysis (reference value: 2.75%); format: functional
NCI-H460 [10] = assay: Induction of apoptosis in human NCI-H460 cells assessed as viable cells at 4 uM by Annexin V/PI staining based flow cytometric analysis (reference value: 95.3%); format: functional; details: read-out: Activity
NCI-H460 [11] = assay: Induction of apoptosis in human NCI-H460 cells assessed as early apoptotic cells at 4 uM by Annexin V/PI staining based flow cytometric analysis (reference value: […]); format: functional
NCI-H460 [12] = assay: Induction of apoptosis in human NCI-H460 cells assessed as late apoptotic cells at 4 uM by Annexin V/PI staining based flow cytometric analysis (reference value: 1.17%); format: functional
NCI-H460 [13] = assay: Induction of apoptosis in human NCI-H460 cells assessed as necrotic cells at 4 uM by Annexin V/PI staining based flow cytometric analysis (reference value: 2.75%); format: functional
NCI-H460 [14] = assay: Induction of apoptosis in human NCI-H460 cells by Annexin V/PI staining based flow cytometric analysis; format: functional, cell-based
NCI-H460 [15] = assay: Antitumor activity against human NCI-H460 cells xenografted in nude mouse assessed as inhibition of tumor mass at 2.5 mg/kg, ip administered every other day for 21 days measured every 3 days; format: functional
[16] = Toxicity in nude mouse xenografted with human NCI-H460 cells assessed as body weight loss at 2.5 to 5 mg/kg, ip administered every other day for 21 days; format: organism-based; details: in vivo, 504 h
[17] = Toxicity in nude mouse xenografted with human NCI-H460 cells assessed as mortality at 5 mg/kg, ip administered every other day for 21 days; format: organism-based; details: in vivo, 504 h
NCI-H460 [18] = assay: Anti-OXPHOS activity in human NCI-H460 cells assessed as inhibition of oxygen consumption rate at 8 uM in presence of uncoupling agent, FCCP by seahorse XFe96 analyser based assay
NCI-H460 [19] = assay: Antitumor activity against human NCI-H460 cells xenografted in nude mouse assessed as decrease in tumor volume at 2.5 mg/kg, ip administered every other day for 21 days measured every 3 days; format: functional, organism-based
NCI-H460 [20] = assay: Antitumor activity against human NCI-H460 cells xenografted in nude mouse assessed as inhibition of tumor mass at 5 mg/kg, ip administered every other day for 21 days measured every 3 days; format: functional
[21] = Toxicity in nude mouse xenografted with human NCI-H460 cells assessed as body weight loss at 5 to 10 mg/kg, ip administered every other day for 21 days; format: organism-based; details: in vivo, 504 h
[22] = Toxicity in nude mouse xenografted with human NCI-H460 cells assessed as mortality at 10 mg/kg, ip administered every other day for 21 days; format: organism-based; details: in vivo, 504 h
NCI-H460 [23] = assay: Antitumor activity against human NCI-H460 cells xenografted in nude mouse assessed as decrease in tumor volume at 5 mg/kg, ip administered every other day for 21 days measured every 3 days; format: functional, organism-based
NCI-H460 [24] = assay: Inhibition of F0 subunit in F0F1 ATP synthase in human NCI-H460 cells assessed as inhibition of oxygen consumption rate at 1 uM by seahorse XFe96 analyser based assay; format: cell-based

CC[C@H]1CCC[C@H](OC(=O)C[n+]2cccc(C(N)=O)c2)[C@@H](C)C(=O)C2=C[C@@H]3[C@@H](C=C[C@@H]4C[C@@H](O[C@@H]5O[C@@H](C)[C@H](OC)[C@@H](OC)[C@H]5OC)C[C@@H]34)[C@@H]2CC(=O)O1
IC50 (MCF7): > 100 µM

CC[C@H]1CCC[C@H](O[C@H]2CC[C@H](N(C)CCCCCC[P+](c3ccccc3)(c3ccccc3)c3ccccc3)[C@@H](C)O2)[C@@H](C)C(=O)C2=C[C@@H]3[C@@H](C=C[C@@H]4C[C@@H](O[C@@H]5O[C@@H](C)[C@H](OC)[C@@H](OC)[C@H]5OC)C[C@@H]34)[C@@H]2CC(=O)O1.[Br-]
IC50 (MCF7): 2 µM
IC50 (HCT-116): 0.3 µM
IC50 (NCI-H460 [1]): 1.6 µM
IC50 (U-87 MG): 1.3 µM
inhibition (NCI-H460 [2]): Dose-dependent effect
inhibition (NCI-H460 [3]): 42%
inhibition (NCI-H460 [4]): inactive
inhibition (NCI-H460 [5]): Active
viability at 2 µM (NCI-H460 [6]): 74.8%
Activity (NCI-H460 [7]): 19.9%
Activity (NCI-H460 [8]): 3.91%
Activity (NCI-H460 [9]): 1.38%
viability at 4 µM (NCI-H460 [10]): 69.3%
Activity (NCI-H460 [11]): 22%
Activity (NCI-H460 [12]): 6.99%
Activity (NCI-H460 [13]): 1.69%
Activity (NCI-H460 [14]): Dose-dependent effect
inhibition in vivo at 2.5 mg/kg (NCI-H460 [15]): 14.6%
Activity [16]: Non-Toxic
Activity [17]: Toxic
inhibition (NCI-H460 [18]): inactive
inhibition (NCI-H460 [19]): Active

CC[C@H]1CCC[C@H](O[C@H]2CC[C@H](N(C)CCC[P+](c3ccccc3)(c3ccccc3)c3ccccc3)[C@@H](C)O2)[C@@H](C)C(=O)C2=C[C@@H]3[C@@H](C=C[C@@H]4C[C@@H](O[C@@H]5O[C@@H](C)[C@H](OC)[C@@H](OC)[C@H]5OC)C[C@@H]34)[C@@H]2CC(=O)O1
IC50 (MCF7): 4.1 µM
IC50 (HCT-116): 0.1 µM
IC50 (NCI-H460 [1]): 2.7 µM
IC50 (U-87 MG): 1.3 µM

CC[C@H]1CCC[C@H](O[C@H]2CC[C@H](N(C)CCCCCC[n+]3ccccc3)[C@@H](C)O2)[C@@H](C)C(=O)C2=C[C@@H]3[C@@H](C=C[C@@H]4C[C@@H](O[C@@H]5O[C@@H](C)[C@H](OC)[C@@H](OC)[C@H]5OC)C[C@@H]34)[C@@H]2CC(=O)O1
IC50 (MCF7): 4.3 µM
IC50 (HCT-116): 9.8 µM
IC50 (NCI-H460 [1]): 22 µM
IC50 (U-87 MG): 11.2 µM

CC[C@H]1CCC[C@H](OC(=O)CCC[n+]2ccccc2)[C@@H](C)C(=O)C2=C[C@@H]3[C@@H](C=C[C@@H]4C[C@@H](O[C@@H]5O[C@@H](C)[C@H](OC)[C@@H](OC)[C@H]5OC)C[C@@H]34)[C@@H]2CC(=O)O1
IC50 (MCF7): > 100 µM

CC[C@H]1CCC[C@H](O[C@H]2CC[C@H](N(C)CCCCCC[n+]3cccc(C(N)=O)c3)[C@@H](C)O2)[C@@H](C)C(=O)C2=C[C@@H]3[C@@H](C=C[C@@H]4C[C@@H](O[C@@H]5O[C@@H](C)[C@H](OC)[C@@H](OC)[C@H]5OC)C[C@@H]34)[C@@H]2CC(=O)O1
IC50 (MCF7): 30.5 µM

CC[C@H]1CCC[C@H](OC(=O)CCC[n+]2cccc(C(N)=O)c2)[C@@H](C)C(=O)C2=C[C@@H]3[C@@H](C=C[C@@H]4C[C@@H](O[C@@H]5O[C@@H](C)[C@H](OC)[C@@H](OC)[C@H]5OC)C[C@@H]34)[C@@H]2CC(=O)O1
IC50 (MCF7): > 100 µM

CC[C@H]1CCC[C@H](OC(=O)CCC[P+](c2ccccc2)(c2ccccc2)c2ccccc2)[C@@H](C)C(=O)C2=C[C@@H]3[C@@H](C=C[C@@H]4C[C@@H](O[C@@H]5O[C@@H](C)[C@H](OC)[C@@H](OC)[C@H]5OC)C[C@@H]34)[C@@H]2CC(=O)O1
IC50 (MCF7): 3.1 µM
IC50 (HCT-116): 0.8 µM
IC50 (NCI-H460 [1]): 1.5 µM
IC50 (U-87 MG): 2.7 µM

CC[C@H]1CCC[C@H](O[C@H]2CC[C@H](N(C)C)[C@@H](C)O2)[C@@H](C)C(=O)C2=C[C@@H]3[C@@H](C=C[C@@H]4C[C@@H](O[C@@H]5O[C@@H](C)[C@H](OC)[C@@H](OC)[C@H]5OC)C[C@@H]34)[C@@H]2CC(=O)O1 [SPINOSYN A]
IC50 (MCF7): 17.9 µM
IC50 (HCT-116): 11.1 µM
IC50 (NCI-H460 [1]): 67.5 µM
IC50 (U-87 MG): 96.5 µM

CC[C@H]1CCC[C@H](O[C@H]2CC[C@H](N(C)CCCCCC[n+]3ccc4ccccc4c3)[C@@H](C)O2)[C@@H](C)C(=O)C2=C[C@@H]3[C@@H](C=C[C@@H]4C[C@@H](O[C@@H]5O[C@@H](C)[C@H](OC)[C@@H](OC)[C@H]5OC)C[C@@H]34)[C@@H]2CC(=O)O1.[Br-]
IC50 (MCF7): 8.9 µM
IC50 (HCT-116): 2.8 µM
IC50 (NCI-H460 [1]): 4.6 µM
IC50 (U-87 MG): 2.5 µM
inhibition (NCI-H460 [2]): Dose-dependent effect
inhibition (NCI-H460 [3]): 41%
inhibition (NCI-H460 [4]): inactive
inhibition (NCI-H460 [5]): Active
viability at 2 µM (NCI-H460 [6]): 84.4%
Activity (NCI-H460 [7]): 9.36%
Activity (NCI-H460 [8]): 5.01%
Activity (NCI-H460 [9]): 1.21%
viability at 4 µM (NCI-H460 [10]): 70.7%
Activity (NCI-H460 [11]): 20.7%
Activity (NCI-H460 [12]): 6.98%
Activity (NCI-H460 [13]): 1.58%
Activity (NCI-H460 [14]): Dose-dependent effect
inhibition in vivo at 5 mg/kg (NCI-H460 [20]): 8.8%
Activity [21]: Non-Toxic
Activity [22]: Toxic
inhibition (NCI-H460 [18]): inactive
inhibition (NCI-H460 [23]): Active

CC[C@H]1/C=C/C=C/C[C@@H](C)[C@H](O)[C@@](C)(O)C(=O)[C@@H](C)[C@H](O)[C@@H](C)C(=O)[C@@H](C)[C@H](O)[C@@H](C)/C=C/C(=O)O[C@@H]2[C@H](C)[C@H](CC1)O[C@]1(CC[C@H](C)[C@H](C[C@@H](C)O)O1)[C@H]2C
inhibition (NCI-H460 [24]): Active

CC[C@H]1CCC[C@H](O[C@H]2CC[C@H](N(C)CCC[n+]3ccccc3)[C@@H](C)O2)[C@@H](C)C(=O)C2=C[C@@H]3[C@@H](C=C[C@@H]4C[C@@H](O[C@@H]5O[C@@H](C)[C@H](OC)[C@@H](OC)[C@H]5OC)C[C@@H]34)[C@@H]2CC(=O)O1
IC50 (MCF7): 23.7 µM

CC[C@H]1CCC[C@H](OC(=O)C[n+]2ccccc2)[C@@H](C)C(=O)C2=C[C@@H]3[C@@H](C=C[C@@H]4C[C@@H](O[C@@H]5O[C@@H](C)[C@H](OC)[C@@H](OC)[C@H]5OC)C[C@@H]34)[C@@H]2CC(=O)O1
IC50 (MCF7): > 100 µM

CC[C@H]1CCC[C@H](O[C@H]2CC[C@H](N(C)CCC[n+]3cccc(C(N)=O)c3)[C@@H](C)O2)[C@@H](C)C(=O)C2=C[C@@H]3[C@@H](C=C[C@@H]4C[C@@H](O[C@@H]5O[C@@H](C)[C@H](OC)[C@@H](OC)[C@H]5OC)C[C@@H]34)[C@@H]2CC(=O)O1
IC50 (MCF7): > 100 µM
